Measurements from publication PMC4937820, “Identification of selective inhibitors of RET and comparison with current clinical candidates through development and validation of a robust screening cascade” (F1000Research, 2016).

What was measured:
[1] = tested on: MZ-CRC-1 (RET (M918T)) versus HEK293 cells; assay: Cell POP (proof of principle) proliferation assay, MZ-CRC-1 vs HEK293 control; format: cell-based, human; details: IC50 HEK293 control cells divided by IC50 MZ-CRC-1 cells
RET [2] = details: MZ-CRC-1 cells; confirmed in-house (data not shown); read-out: IC 50 in MZ-CRC-1 cells (RET); cited from earlier work
RET-positive patients = details: preliminary report of phase II trial; cited from earlier work
RET [3] = assay: Western blot of pRET, total RET and GAPDH in MZ-CRC-1 cells; format: cell-based; details: 1µM, 24 hours
Description: Following compound treatment (1µM, 24 hours), MZ-CRC-1 cell lysates (50 μg) were subjected to polyacrylamide gel electrophoresis (PAGE) and semi-dry transfer to nitrocellulose membrane using the Bio-Rad Trans-Blot Turbo system and Trans-Blot Turbo transfer packs. Membranes were blocked overnight at 4°C in phosphate-buffered saline containing 0.1% Tween (PBST; Sigma) and 5% non-fat dried milk powder (marvel). Primary and secondary antibody incubations were performed at room temperature in PBST/0.5% marvel with 3× PBST washes post incubation. pRET (Santa Cruz #SC-20252-R) and total RET (Santa Cruz #sc-167) antibodies were used at 1:500 dilutions; GAPDH (Cell Signaling Technology #2118L) and secondary goat anti rabbit IgG HRP-linked (Cell Signaling Technology #7074) antibodies were used at 1:1000. Proteins were visualized by chemiluminescent detection of peroxidase activity using SuperSignal reagent (Pierce), and images were captured using the Syngene imager and GeneSys software.

RET [4] = target: RET (Homo sapiens, UniProt P07949, M918T); assay: RET cellular POM (proof of mechanism) assay; format: cell-based
RET (Homo sapiens, UniProt P07949, M918T), sequence (P07949 29-1114 M918T): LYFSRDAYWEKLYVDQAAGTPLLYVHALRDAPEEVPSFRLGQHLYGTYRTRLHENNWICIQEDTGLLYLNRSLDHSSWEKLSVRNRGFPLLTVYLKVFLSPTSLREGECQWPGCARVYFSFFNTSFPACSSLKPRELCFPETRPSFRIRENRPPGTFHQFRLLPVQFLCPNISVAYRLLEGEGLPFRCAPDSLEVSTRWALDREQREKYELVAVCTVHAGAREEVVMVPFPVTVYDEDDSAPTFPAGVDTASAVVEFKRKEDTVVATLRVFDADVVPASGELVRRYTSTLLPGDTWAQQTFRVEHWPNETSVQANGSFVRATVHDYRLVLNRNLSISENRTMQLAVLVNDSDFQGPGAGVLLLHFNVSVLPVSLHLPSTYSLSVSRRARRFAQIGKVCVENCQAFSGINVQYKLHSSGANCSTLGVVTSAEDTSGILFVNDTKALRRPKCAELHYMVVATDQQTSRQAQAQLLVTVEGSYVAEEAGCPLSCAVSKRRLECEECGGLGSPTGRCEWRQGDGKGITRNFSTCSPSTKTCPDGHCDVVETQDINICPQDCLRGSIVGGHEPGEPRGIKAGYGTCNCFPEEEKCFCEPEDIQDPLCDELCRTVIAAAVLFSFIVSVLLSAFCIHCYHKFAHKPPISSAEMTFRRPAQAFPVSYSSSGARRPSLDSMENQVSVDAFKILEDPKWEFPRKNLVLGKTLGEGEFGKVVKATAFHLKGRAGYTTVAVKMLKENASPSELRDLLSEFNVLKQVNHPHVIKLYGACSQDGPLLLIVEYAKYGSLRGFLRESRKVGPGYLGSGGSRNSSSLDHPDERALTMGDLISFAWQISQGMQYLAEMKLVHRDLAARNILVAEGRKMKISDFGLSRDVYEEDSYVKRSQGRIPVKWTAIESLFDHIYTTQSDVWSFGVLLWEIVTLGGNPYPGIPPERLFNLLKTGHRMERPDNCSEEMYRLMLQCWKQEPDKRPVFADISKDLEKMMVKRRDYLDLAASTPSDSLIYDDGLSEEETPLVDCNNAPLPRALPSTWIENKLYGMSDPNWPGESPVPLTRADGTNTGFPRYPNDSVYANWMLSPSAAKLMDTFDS

| SMILES | Toxicity Margin [1] | also measured |
| --- | --- | --- |
| CCc1cc2c(cc1N1CCC(N3CCOCC3)CC1)C(C)(C)c1[nH]c3cc(C#N)ccc3c1C2=O [Alectinib] | ^1>35× | IC50 (RET [2]): […] |
| COc1cc2nccc(Oc3ccc(NC(=O)C4(C(=O)Nc5ccc(F)cc5)CC4)cc3)c2cc1OC [Cabozantinib] |  | Clinical response (RET-positive patients): partial responses in two of three RET-positive patients |
| CC(C)c1cc(-c2n[nH]c(=O)n2-c2ccc3c(ccn3C)c2)c(O)cc1O [Ganetespib] | 0.7× | Effect on levels of active RET (RET [3]): reduce levels of active RET, through protein degradation; Selectivity vs. KDR (cell) (RET [4]; cellular, KDR IC50 divided by RET IC50): 0.36×; IC50 (RET [4]; geometric mean of at least four independent measurements, read-out: RET Cell IC 50): 3.9 nM |
| COc1cc2nccc(Oc3ccc(NC(=O)NC4CC4)c(Cl)c3)c2cc1C(N)=O [Lenvatinib] | 141× |  |
| CNC(=O)c1cc(Oc2ccc(NC(=O)Nc3ccc(Cl)c(C(F)(F)F)c3)cc2)ccn1 [Sorafenib] | 13× |  |
| CCN(CC)CCNC(=O)c1c(C)[nH]c(/C=C2\C(=O)Nc3ccc(F)cc32)c1C [Sunitinib] | 28× |  |
